Laboratory results reported in patent US8129345B2, “MUC1-IκB kinase complexes and their activities” (Dana-Farber Cancer Institute, Inc., priority 2006, dated 2012).

Legend:
MCF-10A cells = test: TNFα stimulation of MCF-10A cells, immunoprecipitation and immunoblotting of fractions; type: cell-based, Human; settings: 20 ng/ml TNFα
Description: FIG. 10B is a pair of photographs of immunoblots. Lysates from MCF-10A cells left untreated (0) or stimulated with 20 ng/ml TNFα for the indicated times (0.5, or 2 hours) were immunoprecipitated with anti-IKKβ (left) or anti-IKKγ (right). The immunoprecipitates were immunoblotted with antibodies specific to MUC1-C, and either IKKβ (left panel) or IKKγ (right panel) as loading controls. The molecular weights of proteins (as indicated on the left of the photographs) are expressed as kilodaltons (kDa).
FIG. 10C is a series of photographs of immunoblots. MCF-10A cells were left untreated (0) or stimulated with 20 ng/ml TNFα for the indicated times. Cytosolic and nuclear fractions of the cells were prepared and subjected to immunoblotting with the indicated antibodies. The molecular weights of proteins (as indicated on the left of the photographs) are expressed as kilodaltons (kDa).
(§1) Cell culture. Human HCT116 colon carcinoma cells, HeLa cervical carcinoma cells and MCF-7 breast cancer cells were grown in Dulbecco's modified Eagle's medium with 10% heat-inactivated fetal bovine serum, 100 units/ml penicillin, […] streptomycin and 2 mM L-glutamine. Human ZR-75-1 breast cancer cells were grown in RPMI1640 medium containing 10% heat-inactivated fetal bovine serum, antibiotics and L-glutamine. Human MCF-10A breast epithelial cells were grown in mammary epithelial cell growth media (MEGM; Cambrex Corp.).
Subcellular fractionation. Nuclear and cytosolic fractions were prepared as described in Kharbanda et al. (1996) Cancer Res. 56:3617-3621.
(§2) Immunoprecipitation and immunoblotting. Lysates from subconfluent cells were prepared as described in Ren et al. (2004) Cancer Cell 5:163-175. Soluble proteins were incubated with anti-IKKβ (Cell Signaling Technology) or anti-IKKγ (Santa Cruz Biotechnology) for 2 h at 4° C. […] The immune complexes were detected with horseradish peroxidase-conjugated secondary (anti-IgG) antibodies (Amersham Biosciences) and enhanced chemiluminescence (ECL; Amersham Biosciences). […]

MCF-7 cells = test: TNFα treatment of MCF-7 cells, MUC1-C binding to IKKs; type: cell-based, Human
Description: as §1, §2

In the case of TNFα, the “phosphorylation and degradation of IκBα” value (MCF-10A cells; MCF-10A cytosolic fractions) was “associated with phosphorylation and degradation of IκBα”, the “targeting of NF-κB p65 to the nucleus” value (MCF-10A cells; MCF-10A nuclear fractions) was “targeting of NF-κB p65 to the nucleus” and the “binding of MUC1-C to IKKβ and IKKγ” value (MCF-10A cells; MCF-10A) was “increased binding”. For the same substance, the “binding of MUC1-C to IKKβ or IKKγ” value (MCF-7 cells) was “no apparent effect”.
